# Data published in PMC13224100, “Esterase-Responsive Mitochondria-Targeted Hydropersulfide Donors Mitigate Doxorubicin Cardiotoxicity While Preserving Anticancer Activity” (Angewandte Chemie (International ed. in English), 2025).
# How the values were obtained:
# Assay type in all cases: cell-based
# HepG2 cells [1] = test: Cytotoxicity of RSSH donors, CCK-8 assay; details: up to 200 μM, 24 h
# Protocol: We next evaluated the effects of RSSH donors on DOX activity in three representative cancer cell lines: triple-negative breast cancer MDA-MB-468, ER-positive breast cancer MCF-7, and hepatocellular carcinoma HepG2.
# Figure S22. Measurement of Cys-SH and GSH in cytoplasm (A, B) and mitochondria (C, D) of H9c2 cells treated with APT-1 (200 µM) APT-1-TPP (200 µM), or vehicle (0.01% DMSO in serum-free medium) for 2 h. Data are mean ± SEM (n = 3); *p ≤ 0.05, **p ≤ 0.01.
# Cytotoxicity Assessment of Hydropersulfide Precursors in H9c2 and HepG2 cells Cell viability was measured using the Cell Counting Kit-8 (CCK-8, Dojindo).[7] […] The plates were then incubated for 1-2 h before measuring absorbance at 450 nm using a plate reader […]
# calculated as: % Viability = 100 × [Abs₄₅₀ (treated cells) / Abs₄₅₀ (vehicle control)]. […]
# Figure S23. […] Results are expressed as mean ± SEM, n≥3; *P<0.05, **P<0.01, ***P<0.001, ****P<0.0001. […]
# Cytoprotective studies were performed as previously described.[8] […] The plates were then incubated for 1-2 h before measuring absorbance at […]
# The relative % cell viability was calculated as 100 times the ratio of Abs450 (RSSH donor + DOX-exposed) to Abs450 (vehicle, non-DOX-exposed). […]
# Basal sulfane sulfur levels were quantified using the fluorescent probe Sulfobiotics SSP4 (Dojindo, SB10) as previously described.[5] […]
# HepG2 cells [2] = test: Mitochondrial membrane potential (TMRM) under DOX; details: donor 25 μM, 4 h pretreatment, DOX 5 μM 24 h
# Protocol: (§1) Figure 6. a) Basal sulfane sulfur (SS) levels in H9c2 cardiomyocyte, MDA-MB-468, MCF-7, and HepG2 cell lines as detected by SSP4 fluorescence. b) Representative images and c) basal levels of mitochondrial membrane potential (MMP) in H9c2 and cancer cells (MDA-MB-468, MCF-7, and HepG2). d) Impact of APT-1 (25 μM) or APT-1-TPP (25 μM) on MMP in DOX (5 μM)-treated (d) H9c2 and e) HepG2 cells. Impact of APT-1 (25 μM) and APT-1-TPP (25 μM) on ATP levels in DOX (5 μM)-treated f) H9c2 and g) HepG2 cells. Results are expressed as mean ± SEM, n = 3–6; *P < 0.05, **P < 0.01, ***P < 0.001, ****P < 0.0001. Significances in (a) and (c) are presented with respect to H9c2 cells.
# (§2) We then examined how RSSH donors influence MMP during DOX exposure. As expected, DOX alone induced mitochondrial depolarization in H9c2 cells, reducing MMP to ca. 50% of control (Figure 6d). […] To complement these observations, we quantified intracellular ATP levels as a functional readout of mitochondrial activity. […]
# (§3) Mitochondrial Membrane Potential Measurements
# (§4) Mitochondrial membrane potential was measured using Image-iT™ TMRM Reagent (Cat#I34361, Invitrogen, USA) according to the manufacturer's protocols. […]
# (§5) The cells were incubated for an additional 24 h. After completion of treatment, cells were washed with a warm clear DMEM medium (with 10% FBS) and incubated in culture media containing TMRM (working solution 100 nM) for 30 min at 37 °C. Cells were then washed with a warm clear FBS-free DMEM medium (3 times) before imaging. Images were obtained with Zeiss LSM 800 with AiryScan Confocal (λex = 548 nm, λem = 573 nm). During each experiment, 6 field images were obtained for each experimental group. Images were analyzed using Image J software, and all cells in each image were selected for fluorescence intensity measurement (cell-free space was also measured as blank). H9c2 signal intensity was set to 100% and signal intensity for all the other cell lines was shown as a percentage of that of H9c2.
# (§6) The experiments were independently repeated three times (n = 3 biological replicates). Data are […]
# (§7) Figure S24. Representative TMRM images for mitochondrial membrane potential (MMP) in H9c2 and HepG2 cells with APT-1 and APT-1-TPP treatment under DOX stress. Ctl = vehicle (medium with 0.01% […]
# (§8) (1 picture or pasted object on this page, not shown here)
# H9c2 cells = test: Mitochondrial membrane potential (TMRM) under DOX; details: donor 25 μM, 4 h pretreatment, DOX 5 μM 24 h
# Protocol: as §1, §2, §3, §4, §5, §6, §7, §8
smiles,measurement,setting,value
CC(=O)NC(C(=O)N(C)CCC[P+](c1ccccc1)(c1ccccc1)c1ccccc1)C(C)(C)SSC(=O)N(C)CCOC(C)=O (stereo not drawn) [APT-1-TPP],cytotoxicity of donor alone,HepG2 cells [1],non-toxic
same,effect on DOX-induced mitochondrial depolarization,HepG2 cells [2],further exacerbated MMP loss
same,effect on DOX-induced loss of MMP,H9c2 cells,"conferred protection, though to a slightly lesser extent"
COC(=O)C(NC(C)=O)C(C)(C)SSC(=O)N(C)CCOC(C)=O (stereo not drawn) [APT-1],cytotoxicity of donor alone,HepG2 cells [1],non-toxic
same,effect on DOX-induced mitochondrial depolarization,HepG2 cells [2],neither donor prevented DOX-induced mitochondrial depolarization
same,effect on DOX-induced loss of MMP,H9c2 cells,preserved MMP
